Structures can show the parent of a compound that is named as a salt.
Test system: phosphoglycerate kinase (PGK) expression
Assay: PGK expression in wild type murine embryonic fibroblasts
Assay type: cell-based
Conditions: 1 μM, 10 μM vs. wild type control (FIG. 12)

For `O=c1c(O)cccn1Cc1cccc(Cl)c1` [Compound F2, 1-(3-chlorobenzyl)-3-hydroxypyridin-2(1H)-one], the PGK expression was “up regulation”.

Target: HIFPH2 (EGLN1) (Homo sapiens (Human), UniProt Q9GZT9)
Assay: EGLN-1 Activity Assay (MALDI-TOF MS)
Assay type: biochemical
Conditions: recombinant human EGLN-1-179/426, HIF-1α peptide 556-574
Method: The enzyme, quantity predetermined to hydroxylate 20% of substrate in 20 minutes, is added to start the reaction. Where inhibitors are used, compounds are prepared in dimethyl sulfoxide at 10-fold final assay concentration. After 20 minutes at room temperature, the reaction is stopped by transferring 10 μL of reaction mixture to 50 μL of a mass spectrometry matrix solution (α-cyano-4-hydroxycinnamic acid, 5 mg/mL in 50% acetonitrile/0.1% TFA, 5 mM NH4PO4). Two microliters of the mixture is spotted onto a MALDI-TOF MS target plate for analysis with an Applied Biosystems (Foster City, Calif.) 4700 Proteomics Analyzer MALDI-TOF MS equipped with a Nd:YAG laser (355 nm, 3 ns pulse width, 200 Hz repetition rate). Hydroxylated peptide product is identified from substrate by the gain of 16 Da. Data defined as percent conversion of substrate to product is analyzed in GraphPad Prism 4 to calculate IC50 values.

HIFPH2 (EGLN1), sequence (Q9GZT9 179-426): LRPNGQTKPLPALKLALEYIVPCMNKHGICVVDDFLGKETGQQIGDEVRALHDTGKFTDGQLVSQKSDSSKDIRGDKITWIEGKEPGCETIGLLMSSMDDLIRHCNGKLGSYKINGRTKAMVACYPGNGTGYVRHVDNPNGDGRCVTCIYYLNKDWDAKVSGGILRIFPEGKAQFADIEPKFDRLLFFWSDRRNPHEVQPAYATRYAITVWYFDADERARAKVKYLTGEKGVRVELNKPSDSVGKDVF

“1-Benzyl-3-hydroxy-4-(4-benzylpiperidin-1-ylmethyl)pyridin-2(1H)-one [Compound B9]” and “1-Benzyl-3-hydroxy-4-(benzylaminomethyl)pyridin-2(1H)-one [Compound C1]” are within 1.5-fold of each other in IC50: 17 µM for the first, 12 µM for the second.

`COc1ccccc1Cn1ccc(CN2CCCCCC2)c(O)c1=O` [Compound A18] and `CC(C)(C)OC(=O)N1CCN(Cc2ccn(Cc3ccc(Cl)cc3)c(=O)c2O)CC1` [Compound A41, tert-butyl 4-{[1-(4-chlorobenzyl)-3-hydroxy-2-oxo-1,2-dihydropyridin-4-yl]methyl}-piperazine-1-carboxylate] are within 1.5-fold of each other in IC50: 18 µM for the first, 14 µM for the second.

`COC[C@H]1CCCN1Cc1ccn(Cc2ccccc2)c(=O)c1O` [Compound B5, 1-Benzyl-3-hydroxy-4-{[2-(methoxymethyl)pyrrolidin-1-yl]methyl}pyridin-2(1H)-one] and `O=c1c(O)c(CN2CCN(c3ccc(Cl)nn3)CC2)ccn1Cc1ccccc1` [Compound B14, 1-Benzyl-3-hydroxy-4-[4-(6-chloropyridazin-3-yl)piperazin-1-ylmethyl]pyridin-2(1H)-one] are within 1.5-fold of each other in IC50: 9 µM for the first, 11 µM for the second.

`CC(NCc1ccn(Cc2ccccc2)c(=O)c1O)c1ccccc1` (centres unmarked) [Compound C14, 1-Benzyl-3-hydroxy-4-[(1-phenylethylamino)methyl]pyridin-2(1H)-one] and `CC1CCC(NCc2ccn(Cc3ccccc3)c(=O)c2O)CC1` (centres unmarked) [Compound C17, 1-Benzyl-3-hydroxy-4-[(4-methylcyclohexylamino)methyl]pyridin-2(1H)-one] are within 1.5-fold of each other in IC50: 12 µM for the first, 11 µM for the second.

`O=C1NCCCCC1NCc1ccn(Cc2ccccc2)c(=O)c1O` (centres unmarked) [Compound C19, 3-[(1-Benzyl-3-hydroxy-2-oxo-1,2-dihydropyridin-4-yl)methylamino]azepan-2-one] and `CSCCNCc1ccn(Cc2ccccc2)c(=O)c1O` [Compound C33] are within 1.5-fold of each other in IC50: 12 µM for the first, 16 µM for the second.

First: O=c1c(O)c(CNCCCn2ccnc2)ccn1Cc1ccccc1 [Compound C35]
Second: Cc1ccc(S(=O)(=O)n2ccc(CN3CCC(N4CCCCC4)CC3)c(O)c2=O)cc1 [Compound D10, 1-(4′-Methylbenzenesulfonyl)-3-hydroxy-4-[1,4]Bipiperidinyl-1′-ylmethylpyridin-2(1H)-one]
The IC50 of the first is 2.7-fold higher: 12 µM for the first, 4.4 µM for the second. The second is the more potent here.

Compared with `Cc1ccc(S(=O)(=O)n2ccc(CN3CCN(c4ccc(Cl)nn4)CC3)c(O)c2=O)cc1` [Compound D14, 1-(4′-Methylbenzenesulfonyl)-3-hydroxy-4-[4-(6-chloropyridazin-3-yl)piperazin-1-ylmethyl]pyridin-2(1H)-one], `O=c1c(O)cccn1Cc1cccc(Cl)c1` [Compound F2, 1-(3-chlorobenzyl)-3-hydroxypyridin-2(1H)-one] is 2.4-fold lower in IC50: 12 µM for the first, 5 µM for the second. The second is the more potent here.

`O=c1c(O)cccn1Cc1ccc(Cl)cc1` [Compound F3, 1-(4-chlorobenzyl)-3-hydroxypyridin-2(1H)-one] gave an IC50 of 1.2 µM.

Test system: S. aureus
Assay: not given
Conditions: Zinkernagel et al. 2008; cited from earlier work

In the case of `NC(Cn1ccc(=O)c(O)c1)C(=O)O` (centres unmarked) [mimosine], the lesion size is listed as “reduce the lesion size”.

Test system: not listed separately
Assay: solubility of pharmaceutically acceptable salts in water
Assay type: physicochemical
Conditions: not given
Method: The formulator can determine the solubility of the pharmaceutically acceptable salts of the disclosed inhibitors by any method desirable. The following is a non-limiting example of a procedure for evaluating the solubility of a salt of a disclosed inhibitor. A suspension of tert-butyl-{1[-(4-chlorobenzyl)-3-hydroxy-2-oxo-1,2-dihydropyridin-4-yl]methyl}-piperazine-1-carboxylate methanesulfonate (26.6 mg) in distilled deionized water (3.0 mL) is sonicated for 20 min with water bath temperature under 25° C. The suspension is filtered to remove any insoluble salt. The clear filtrate solution (200 μL) is diluted with distilled deionized water (800 μL) and subjected to HPLC analysis. The following are results for the pharmaceutically acceptable salts outlined in Table VII above.

For `CC(C)(C)OC(=O)N1CCN(Cc2ccn(Cc3ccc(Cl)cc3)c(=O)c2O)CC1` [hydrochloride, tert-butyl-{[1-(4-chlorobenzyl)-3-hydroxy-2-oxo-1,2-dihydropyridin-4-yl]methyl}-piperazine-1-carboxylate], the “Solubility” value was 5900 µg/mL.
Going from `CC(C)(C)OC(=O)N1CCN(Cc2ccn(Cc3ccc(Cl)cc3)c(=O)c2O)CC1` [p-toluenesulfonate, tert-butyl-{[1-(4-chlorobenzyl)-3-hydroxy-2-oxo-1,2-dihydropyridin-4-yl]methyl}-piperazine-1-carboxylate] to “tert-butyl-{[1-(4-chlorobenzyl)-3-hydroxy-2-oxo-1,2-dihydropyridin-4-yl]methyl}-piperazine-1-carboxylate [hydrogensulfonate]”, the “Solubility” value rises from 2300 µg/mL to 13200 µg/mL (5.7-fold).

Same assay, conditions: thermodynamic from solid; distilled deionized water, sonicated 20 min, under 25° C., HPLC

Going from `CC(C)(C)OC(=O)N1CCN(Cc2ccn(Cc3ccc(Cl)cc3)c(=O)c2O)CC1` [Compound A41, tert-butyl 4-{[1-(4-chlorobenzyl)-3-hydroxy-2-oxo-1,2-dihydropyridin-4-yl]methyl}-piperazine-1-carboxylate] to `CC(C)(C)OC(=O)N1CCN(Cc2ccn(Cc3ccc(Cl)cc3)c(=O)c2O)CC1.CS(=O)(=O)O` [methanesulfonate, tert-butyl-{1[-(4-chlorobenzyl)-3-hydroxy-2-oxo-1,2-dihydropyridin-4-yl]methyl}-piperazine-1-carboxylate methanesulfonate], the solubility at 20 min rises from roughly 1 µg/mL to 16600 µg/mL (17000-fold).

Test system: Staphylococcus aureus
Assay: not given
Conditions: dose-dependent; Zinkernagel et al. 2008; cited from earlier work

For `NC(Cn1ccc(=O)c(O)c1)C(=O)O` (centres unmarked) [mimosine], the “capacity of human phagocytes and whole blood to kill Staphylococcus aureus” value is given as “boost”.

— patent US8536181B2, “Prolyl hydroxylase inhibitors” (Aerpio Therapeutics Inc., priority 2009, dated 2013)
